From ChEMBL document CHEMBL1909046, “DrugMatrix in vitro pharmacology data”

Tests used:
[1] = target: T1, Alpha-1D adrenergic receptor (Homo sapiens, UniProt P25100); type: cell membranes, HEK293, Membrane; settings: hek293; also: in other assays of this panel Not Active means under 50% inhibition at 10 µM
T1 sequence (P25100 whole entry): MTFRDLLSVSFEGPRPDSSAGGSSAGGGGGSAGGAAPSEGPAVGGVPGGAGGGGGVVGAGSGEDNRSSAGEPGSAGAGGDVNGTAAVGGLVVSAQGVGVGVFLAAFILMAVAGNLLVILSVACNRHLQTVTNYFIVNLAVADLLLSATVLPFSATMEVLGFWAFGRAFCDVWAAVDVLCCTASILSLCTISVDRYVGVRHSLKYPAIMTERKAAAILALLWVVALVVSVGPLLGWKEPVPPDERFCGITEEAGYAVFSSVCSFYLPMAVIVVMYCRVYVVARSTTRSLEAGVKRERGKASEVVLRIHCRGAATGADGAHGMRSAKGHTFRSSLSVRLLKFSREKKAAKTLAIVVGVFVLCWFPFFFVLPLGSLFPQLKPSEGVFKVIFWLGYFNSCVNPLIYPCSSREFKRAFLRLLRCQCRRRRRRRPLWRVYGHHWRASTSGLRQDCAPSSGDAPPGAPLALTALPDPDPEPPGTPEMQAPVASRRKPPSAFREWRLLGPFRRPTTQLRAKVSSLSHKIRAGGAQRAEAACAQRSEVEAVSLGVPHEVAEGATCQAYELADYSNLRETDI

[2] = target: T2, Vasoactive intestinal polypeptide receptor 1 (Homo sapiens, UniProt P32241); type: cell membranes, Membrane; settings: ht-29; also: in other assays of this panel Not Active means under 50% inhibition at 10 µM
T2 sequence (P32241 whole entry): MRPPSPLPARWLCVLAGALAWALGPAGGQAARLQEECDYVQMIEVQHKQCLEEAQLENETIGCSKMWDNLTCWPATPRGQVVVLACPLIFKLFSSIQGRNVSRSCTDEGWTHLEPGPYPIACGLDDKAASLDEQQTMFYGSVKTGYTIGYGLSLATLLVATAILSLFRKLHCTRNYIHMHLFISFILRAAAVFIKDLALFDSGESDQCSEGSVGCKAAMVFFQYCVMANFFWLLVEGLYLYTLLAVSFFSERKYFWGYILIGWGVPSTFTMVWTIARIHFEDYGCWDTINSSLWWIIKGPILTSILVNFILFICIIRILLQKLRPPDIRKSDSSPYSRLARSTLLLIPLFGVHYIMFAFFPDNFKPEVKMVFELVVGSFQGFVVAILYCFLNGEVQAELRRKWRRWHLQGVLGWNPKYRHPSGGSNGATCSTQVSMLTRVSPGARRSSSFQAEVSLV

[3] = target: C-C chemokine receptor type 5 (Homo sapiens, UniProt P51681); type: cell membranes, Membrane; settings: hek293; also: in other assays of this panel Not Active means under 50% inhibition at 10 µM
[4] = target: T3, C-X-C chemokine receptor type 2 (Homo sapiens, UniProt P25025); type: cell membranes, Membrane; settings: cho-k1; also: in other assays of this panel Not Active means under 50% inhibition at 10 µM
T3 sequence (P25025 whole entry): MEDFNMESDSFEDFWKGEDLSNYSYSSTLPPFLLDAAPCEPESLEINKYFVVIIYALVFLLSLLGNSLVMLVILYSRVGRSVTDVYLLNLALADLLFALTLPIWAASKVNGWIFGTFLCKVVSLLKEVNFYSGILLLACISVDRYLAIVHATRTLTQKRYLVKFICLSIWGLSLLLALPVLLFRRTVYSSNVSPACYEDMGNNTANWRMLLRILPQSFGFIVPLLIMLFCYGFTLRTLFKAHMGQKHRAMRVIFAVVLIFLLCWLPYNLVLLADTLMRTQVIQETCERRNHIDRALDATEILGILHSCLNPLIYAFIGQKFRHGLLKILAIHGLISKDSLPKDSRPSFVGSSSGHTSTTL

[5] = target: T4, Nitric oxide synthase, inducible (Mus musculus, UniProt P29477); design: species or system Escherichia coli
T4 sequence (P29477 whole entry): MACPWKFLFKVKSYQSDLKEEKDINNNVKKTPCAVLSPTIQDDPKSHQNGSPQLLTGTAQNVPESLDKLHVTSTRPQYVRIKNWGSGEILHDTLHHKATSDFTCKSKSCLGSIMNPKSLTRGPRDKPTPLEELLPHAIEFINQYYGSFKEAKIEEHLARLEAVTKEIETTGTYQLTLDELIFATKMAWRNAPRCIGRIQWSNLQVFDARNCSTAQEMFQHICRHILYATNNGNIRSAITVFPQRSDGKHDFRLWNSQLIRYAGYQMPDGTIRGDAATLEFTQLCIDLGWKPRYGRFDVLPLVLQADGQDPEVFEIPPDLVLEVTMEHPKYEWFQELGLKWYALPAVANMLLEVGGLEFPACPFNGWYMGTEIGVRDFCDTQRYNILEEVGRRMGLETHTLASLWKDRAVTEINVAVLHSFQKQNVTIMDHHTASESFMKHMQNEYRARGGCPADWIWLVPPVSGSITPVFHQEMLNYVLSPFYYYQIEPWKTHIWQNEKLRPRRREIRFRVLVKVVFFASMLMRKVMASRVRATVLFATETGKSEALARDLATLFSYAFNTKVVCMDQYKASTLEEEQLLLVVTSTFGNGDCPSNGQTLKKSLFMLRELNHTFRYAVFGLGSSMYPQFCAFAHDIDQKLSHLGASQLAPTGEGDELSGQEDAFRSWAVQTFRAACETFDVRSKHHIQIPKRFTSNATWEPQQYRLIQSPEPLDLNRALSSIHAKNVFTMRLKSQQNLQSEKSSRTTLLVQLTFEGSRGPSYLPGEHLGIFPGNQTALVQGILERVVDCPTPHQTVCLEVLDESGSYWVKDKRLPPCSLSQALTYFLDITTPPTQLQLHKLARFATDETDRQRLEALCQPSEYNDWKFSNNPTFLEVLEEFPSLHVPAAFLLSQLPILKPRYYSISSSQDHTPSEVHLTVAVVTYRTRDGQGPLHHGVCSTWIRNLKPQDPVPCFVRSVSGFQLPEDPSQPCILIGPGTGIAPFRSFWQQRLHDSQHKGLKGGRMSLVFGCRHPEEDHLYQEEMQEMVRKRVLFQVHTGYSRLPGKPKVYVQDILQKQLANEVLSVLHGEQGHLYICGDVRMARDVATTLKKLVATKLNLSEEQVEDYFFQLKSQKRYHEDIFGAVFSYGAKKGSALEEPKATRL

[6] = target: Kappa-type opioid receptor (Homo sapiens, UniProt P41145); assay: DRUGMATRIX: Opiate kappa (OP2, KOP) radioligand binding (ligand: [3H] Diprenorphine); type: cell membranes, HEK293, Membrane; settings: hek293; Not Active = under 50% inhibition at 10 µM
[7] = DRUGMATRIX: Platelet-Derived Growth Factor (PDGF) radioligand binding (ligand: [125I] PDGF); type: cell-based; settings: nih3t3; Not Active = under 50% inhibition at 10 µM

Kappa-type opioid receptor, sequence (P41145 whole entry): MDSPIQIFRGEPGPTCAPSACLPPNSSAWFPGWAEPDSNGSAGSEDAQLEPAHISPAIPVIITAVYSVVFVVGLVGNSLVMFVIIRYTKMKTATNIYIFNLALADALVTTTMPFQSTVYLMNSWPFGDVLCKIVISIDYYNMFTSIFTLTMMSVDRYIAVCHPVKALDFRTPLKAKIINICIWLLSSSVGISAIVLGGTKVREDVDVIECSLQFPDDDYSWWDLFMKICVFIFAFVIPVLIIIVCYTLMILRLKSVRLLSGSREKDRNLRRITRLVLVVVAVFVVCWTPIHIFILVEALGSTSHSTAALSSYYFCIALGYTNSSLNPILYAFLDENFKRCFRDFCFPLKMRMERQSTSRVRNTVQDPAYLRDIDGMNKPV
C-C chemokine receptor type 5, sequence (P51681 whole entry): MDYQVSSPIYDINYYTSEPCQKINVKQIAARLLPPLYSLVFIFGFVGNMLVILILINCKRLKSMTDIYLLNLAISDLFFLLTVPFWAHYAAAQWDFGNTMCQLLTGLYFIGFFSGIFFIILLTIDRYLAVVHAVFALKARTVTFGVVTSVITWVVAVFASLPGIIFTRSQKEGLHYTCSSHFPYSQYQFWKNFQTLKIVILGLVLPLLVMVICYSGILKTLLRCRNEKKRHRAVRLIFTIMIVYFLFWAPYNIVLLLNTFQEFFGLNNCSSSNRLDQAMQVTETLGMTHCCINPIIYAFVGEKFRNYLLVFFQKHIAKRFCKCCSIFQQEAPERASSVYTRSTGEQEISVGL

Nn1nnc2ccccc21
Not Active: IC50 [1] | IC50 [2] | IC50 [3] | IC50 [4] | IC50 [5] | IC50 [6] | IC50 [7] | Ki [7]

CC[C@]1(O)CC[C@H]2[C@@H]3CCC4=CCCC[C@@H]4[C@H]3CC[C@@]21C
Not Active: IC50 [1] | IC50 [2] | IC50 [3] | IC50 [4] | IC50 [5] | IC50 [6] | IC50 [7] | Ki [7]

N[C@@H](Cc1ccc(F)cc1)C(=O)O
Not Active: IC50 [1] | IC50 [2] | IC50 [3] | IC50 [4] | IC50 [5] | IC50 [6] | IC50 [7] | Ki [7]

CCOC(=O)[C@H](CCc1ccccc1)N[C@@H](C)C(=O)N1Cc2ccccc2C[C@H]1C(=O)O
Not Active: IC50 [1] | IC50 [2] | IC50 [3] | IC50 [4] | IC50 [5] | IC50 [6] | IC50 [7] | Ki [7]

O=C(c1ccccc1Cl)N1CCC(Cc2ccccc2)CC1
Not Active: IC50 [1] | IC50 [2] | IC50 [3] | IC50 [4] | IC50 [5] | IC50 [6] | IC50 [7] | Ki [7]

CCOC(=O)[C@H](CCc1ccccc1)N[C@@H](C)C(=O)N1CCC[C@H]1C(=O)O
Not Active: IC50 [1] | IC50 [2] | IC50 [3] | IC50 [4] | IC50 [5] | IC50 [6] | IC50 [7] | Ki [7]

C=C1/C(=C\C=C2/CCC[C@]3(C)[C@@H]([C@H](C)CCCC(C)C)CC[C@@H]23)C[C@@H](O)C[C@@H]1O [ALFACALCIDOL]
Not Active: IC50 [1] | IC50 [2] | IC50 [3] | IC50 [4] | IC50 [5] | IC50 [6] | IC50 [7] | Ki [7]

CCCCCC[C@H]1C(=O)O[C@H](C)[C@H](NC(=O)c2cccc(NC=O)c2O)C(=O)O[C@@H](C)[C@@H]1OC(=O)CC(C)C [ANTIMYCIN A]
Not Active: IC50 [1] | IC50 [2] | IC50 [3] | IC50 [4] | IC50 [5] | IC50 [6] | IC50 [7] | Ki [7]

C[C@@H]1CC[C@H]2[C@@H](C)C(=O)O[C@@H]3O[C@@]4(C)CC[C@@H]1[C@]32OO4 [ARTEMISININ]
Not Active: IC50 [1] | IC50 [2] | IC50 [3] | IC50 [4] | IC50 [5] | IC50 [6] | IC50 [7] | Ki [7]

CO[C@H]1[C@@H](O)[C@H](N)[C@@H](O[C@H]2O[C@H]([C@H](C)N)CC[C@H]2N)[C@H](O)[C@@H]1N(C)C(=O)CN [ASTROMICIN]
Not Active: IC50 [1] | IC50 [2] | IC50 [3] | IC50 [4] | IC50 [5] | IC50 [6] | IC50 [7] | Ki [7]

[N-]=[N+]=CC(=O)OC[C@H](N)C(=O)O [AZASERINE]
Not Active: IC50 [1] | IC50 [2] | IC50 [3] | IC50 [4] | IC50 [5] | IC50 [6] | IC50 [7] | Ki [7]

CC[C@H]1OC(=O)[C@H](C)[C@@H](O[C@H]2C[C@@](C)(OC)[C@@H](O)[C@H](C)O2)[C@H](C)[C@@H](O[C@@H]2O[C@H](C)C[C@H](N(C)C)[C@H]2O)[C@](C)(O)C[C@@H](C)CN(C)[C@H](C)[C@@H](O)[C@]1(C)O [AZITHROMYCIN]
Not Active: IC50 [1] | IC50 [2] | IC50 [3] | IC50 [4] | IC50 [5] | IC50 [6] | IC50 [7] | Ki [7]

CC(C)(C)c1ccc(S(=O)(=O)/C=C/C#N)cc1 [BAY-11-7085]
Not Active: IC50 [1] | IC50 [2] | IC50 [3] | IC50 [4] | IC50 [5] | IC50 [6] | IC50 [7] | Ki [7]

CCc1oc2ccccc2c1C(=O)c1cc(Br)c(O)c(Br)c1 [BENZBROMARONE]
Not Active: IC50 [1] | IC50 [2] | IC50 [3] | IC50 [4] | IC50 [5] | IC50 [6] | IC50 [7] | Ki [7]
